{"source": "patent US20260295053A1", "about": "“COMPOUNDS FOR DEGRADATION AND INHIBITION OF KRAS (G12D) PROTEIN” (Shenzhen Ionova Life Science Co., Ltd., priority 2023, published 2026)", "target": "T1, KRAS (G12D) (Homo sapiens, UniProt P01116, G12D)", "T1 construct": "in-cell western with KRAS G12D antibody after 24 h", "T1 sequence (P01116 1-188 isoform P01116-2 G12D)": "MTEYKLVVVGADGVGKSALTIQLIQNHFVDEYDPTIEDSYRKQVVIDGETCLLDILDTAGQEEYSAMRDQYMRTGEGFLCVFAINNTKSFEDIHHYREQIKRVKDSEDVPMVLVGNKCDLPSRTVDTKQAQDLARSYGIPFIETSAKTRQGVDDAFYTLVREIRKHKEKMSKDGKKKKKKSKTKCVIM", "assay": "KRAS (G12D) cellular degradation assay in AsPC-1 cells", "format": "cell-based", "conditions": "24 hours, antibody fluorescence (Odyssey CLX), DC50 half-maximal degradation concentration", "protocol": "ASPC-1 and PK-59 cellular assays ASPC-1 (ATCC cat. CRL-1682) and PK-59 (Nanjing Cobioer, Cat. No. CBP61184) were used in KRAS cellular degradation, pERK inhibition and proliferation assays. The two cell lines were maintained following vendor's instructions. For monitoring KRAS (G12D) cellular degradation and pERK biomarker inhibition, cells were seeded into a 96-well plate with 22,000 and 16,000 cells/well for assays in ASPC-1 and PK-59, respectively. Cells were incubated at 37° C. with 5% CO2 and cell density was monitored until ^~90% confluency was reached. Compounds were serially diluted at a 1:3 ratio and dispensed into each well at final concentrations ranging from […] to 1.5 nM. After incubation for 24 hours, the culture media were removed and the cells were subjected to fixation, permeabilization and blocking (Intercept blocking buffer, Li-cor). For KRAS (G12D) degradation, the cells were treated with primary antibody (KRAS G12D antibody, Cell Signaling Technologies, Cat. No. CST14429) and for β-actin (β-actin mAb, Beyotime, Cat. No. AF-5001), and followed by secondary antibodies, Anti-rabbit IgG (H+L) (DyLight™ 800 4×PEG Conjugate) or IRDye® 680RD Goat anti-Mouse IgG. For pERK inhibition assay, cells were treated with primary antibodies for pERK (Phospho-p44/42 MAPK (Erk1/2) (Thr202/Tyr204) (D13.14.4E) XP® Rabbit mAb, Cell Signaling Technologies, Cat. No. CST-4370) and β-actin (β-actin mAb, Beyotime, Cat. No. AF-5001), and followed by secondary antibodies, Anti-rabbit IgG (H+L) (DyLight™ 800 4×PEG Conjugate) or IRDye® 680RD Goat anti-Mouse IgG. Fluorescence signals were read on Odyssey CLX instrument. For cell proliferation assays, cells were seeded into a 96-well plate at 3,500 and 800 cells/well for assays in ASPC-1 and PK-59, respectively. Cells were incubated at 37° C. with 5% CO2 for overnight. Compounds were serially diluted at a 1:3 ratio and dispensed into each well at final concentrations ranging from […] to 1.5 nM. After incubation for 6 days, cell viability reagent (CellTiter Glo, Promega, Cat. No. G7573) was added to each well and luminescence was recorded on Molecular Devices Spectramax iD3 instrument. IC50, half-maximal inhibitory concentration for pERK inhibition or cell proliferation, and DC50, half-maximal degradation concentration in KRAS (G12D) cellular degradation were determined by fitting the corresponding dose response curves using GraphPad Prism software.\nWherein “A” means the value <10 nM, “B” means 10 nM<the value <100 nM, “C” means 100 nM<the value <1000 nM, and “D” means the value >1000 nM, in which, the value means the value of DC50 or IC50. NT means not tested."}
{"smiles": "CO[C@@H](C)COc1nc(N2C[C@@H]3CN[C@@H](C3)C2)c2cc(C3CC3)c(-c3c(C)c(F)cc4[nH]ncc34)c(OCc3ccc(-c4cn([C@H](C(=O)N5C[C@H](O)C[C@H]5C(=O)N[C@@H](CO)c5ccc(-c6scnc6C)cc5)C(C)C)nn4)cc3)c2n1", "note": "[Example 230, (2S,4R)-1-((2S)-2-(4-(4-(((4-((1S,5S)-3,6-diazabicyclo[3.2.1]octan-3-yl)-6-cyclopropyl-7-(6-fluoro-5-methyl-1H-indazol-4-yl)-2-((S)-2-methoxypropoxy)quinazolin-8-yl)oxy)methyl)phenyl)-1H-1,2,3-triazol-1-yl)-3-methylbutanoyl)-4-hydroxy-N—((R)-2-hydroxy-1-(4-(4-methylthiazol-5-yl)phenyl)ethyl)pyrrolidine-2-carboxamide]", "values": [{"measurement": "DC50", "result": "10 to 100", "unit": "nM"}]}
{"smiles": "CO[C@@H](C)COc1nc(N2C[C@@H]3C[C@H]2CN3)c2cc(C3CC3)c(-c3c(C)c(F)cc4[nH]ncc34)c(OCc3ccc(-c4cn([C@H](C(=O)N5C[C@H](O)C[C@H]5C(=O)N[C@H](C#Cc5cncc6ncsc56)CO)C(C)C)nn4)cc3)c2n1", "note": "[Example 118, (2S,4R)-1-((2S)-2-(4-(4-(((4-((1S,4S)-2,5-diazabicyclo[2.2.1]heptan-2-yl)-6-cyclopropyl-7-(6-fluoro-5-methyl-1H-indazol-4-yl)-2-((S)-2-methoxypropoxy)quinazolin-8-yl)oxy)methyl)phenyl)-1H-1,2,3-triazol-1-yl)-3-methylbutanoyl)-4-hydroxy-N—((R)-1-hydroxy-4-(thiazolo[4,5-c]pyridin-7-yl)but-3-yn-2-yl)pyrrolidine-2-carboxamide]", "values": [{"measurement": "DC50", "result": "10 to 100", "unit": "nM"}]}
{"smiles": "CCn1nccc1-c1ccc([C@H](CO)NC(=O)[C@@H]2C[C@@H](O)CN2C(=O)[C@H](C(C)C)n2cc(-c3ccc(COc4c(-c5c(C)c(F)cc6[nH]ncc56)c(C5CC5)cc5c(N6C[C@@H]7C[C@H]6CN7)nc(N6CCC(COC)C6)nc45)cc3)nn2)cc1", "note": "(stereo partly drawn) [Example 125, (2S,4R)-1-((2S)-2-(4-(4-(((4-((1S,4S)-2,5-diazabicyclo[2.2.1]heptan-2-yl)-6-cyclopropyl-7-(6-fluoro-5-methyl-1H-indazol-4-yl)-2-(3-(methoxymethyl)pyrrolidin-1-yl)quinazolin-8-yl)oxy)methyl)phenyl)-1H-1,2,3-triazol-1-yl)-3-methylbutanoyl)-N—((R)-1-(4-(1-ethyl-1H-pyrazol-5-yl)phenyl)-2-hydroxyethyl)-4-hydroxypyrrolidine-2-carboxamide]", "values": [{"measurement": "DC50", "result": "10 to 100", "unit": "nM"}]}
{"smiles": "CCn1nccc1-c1ccc([C@H](CO)NC(=O)[C@@H]2C[C@@H](O)CN2C(=O)[C@H](C(C)C)n2cc(-c3ccc(COc4c(-c5c(C)c(F)cc6[nH]ncc56)c(C5CC5)cc5c(N6CCCNCC6)nc(OC[C@H](C)OC)nc45)cc3)nn2)c2c1CC2", "note": "[Example 224, (2S,4R)-1-((2S)-2-(4-(4-(((6-cyclopropyl-4-(1,4-diazepan-1-yl)-7-(6-fluoro-5-methyl-1H-indazol-4-yl)-2-((S)-2-methoxypropoxy)quinazolin-8-yl)oxy)methyl)phenyl)-1H-1,2,3-triazol-1-yl)-3-methylbutanoyl)-N—((R)-1-(5-(1-ethyl-1H-pyrazol-5-yl)bicyclo[4.2.0]octa-1(6),2,4-trien-2-yl)-2-hydroxyethyl)-4-hydroxypyrrolidine-2-carboxamide]", "values": [{"measurement": "DC50", "result": "< 10", "unit": "nM"}]}
{"smiles": "CCn1nccc1-c1ccc([C@H](CO)NC(=O)[C@@H]2C[C@@H](O)CN2C(=O)[C@H](C(C)C)n2cc(-c3ccc(COc4c(-c5c(C)c(F)cc6[nH]ncc56)c(C5CC5)cc5c(N(C)C[C@H]6CCCN6)nc(OC[C@H](C)OC)nc45)cc3)nn2)cc1", "note": "[Example 218, (2S,4R)-1-((2S)-2-(4-(4-(((6-cyclopropyl-7-(6-fluoro-5-methyl-1H-indazol-4-yl)-2-((S)-2-methoxypropoxy)-4-(methyl(((R)-pyrrolidin-2-yl)methyl)amino)quinazolin-8-yl)oxy)methyl)phenyl)-1H-1,2,3-triazol-1-yl)-3-methylbutanoyl)-N—((R)-1-(4-(1-ethyl-1H-pyrazol-5-yl)phenyl)-2-hydroxyethyl)-4-hydroxypyrrolidine-2-carboxamide]", "values": [{"measurement": "DC50", "result": "> 1000", "unit": "nM"}]}
{"smiles": "CCn1nccc1-c1ccc([C@@H](NC(=O)[C@@H]2C[C@@H](O)CN2C(=O)[C@H](C(C)C)n2cc(-c3ccc(COc4c(-c5c(C)c(F)cc6[nH]ncc56)c(C5CC5)cc5c(N(C)[C@@H]6CCNC6)nc(O[C@H]6C[C@H](OC)C6)nc45)cc3)nn2)[C@H](C)O)c2c1CC2", "note": "[Example 211, (2S,4R)-1-((2S)-2-(4-(4-(((6-cyclopropyl-7-(6-fluoro-5-methyl-1H-indazol-4-yl)-2-((1r,3R)-3-methoxycyclobutoxy)-4-(methyl((R)-pyrrolidin-3-yl)amino)quinazolin-8-yl)oxy)methyl)phenyl)-1H-1,2,3-triazol-1-yl)-3-methylbutanoyl)-N-((1R,2S)-1-(5-(1-ethyl-1H-pyrazol-5-yl)bicyclo[4.2.0]octa-1(6),2,4-trien-2-yl)-2-hydroxypropyl)-4-hydroxypyrrolidine-2-carboxamide]", "values": [{"measurement": "DC50", "result": "< 10", "unit": "nM"}]}
{"smiles": "CCn1nccc1-c1ccc([C@H](CO)NC(=O)[C@@H]2C[C@@H](O)CN2C(=O)[C@H](C(C)C)n2cc(-c3ccc(COc4c(-c5c(C)c(F)c(F)c6[nH]ncc56)c(C5CCC5)cc5c(N6C[C@@H]7C[C@H]6CN7)nc(OC[C@H](C)OC)nc45)cc3)nn2)cc1", "note": "[Example 106, (2S,4R)-1-((2S)-2-(4-(4-(((4-((1S,4S)-2,5-diazabicyclo[2.2.1]heptan-2-yl)-6-cyclobutyl-7-(6,7-difluoro-5-methyl-1H-indazol-4-yl)-2-((S)-2-methoxypropoxy)quinazolin-8-yl)oxy)methyl)phenyl)-1H-1,2,3-triazol-1-yl)-3-methylbutanoyl)-N—((R)-1-(4-(1-ethyl-1H-pyrazol-5-yl)phenyl)-2-hydroxyethyl)-4-hydroxypyrrolidine-2-carboxamide]", "values": [{"measurement": "DC50", "result": "10 to 100", "unit": "nM"}]}
{"smiles": "CO[C@@H]1CC[C@@H](Oc2nc(N3C[C@@H]4C[C@H]3CN4)c3cc(C4CC4)c(-c4c(C)c(F)cc5[nH]ncc45)c(OCc4ccc(-c5cn([C@H](C(=O)N6C[C@H](O)C[C@H]6C(=O)N[C@H](c6ccc(-c7scnc7C)cc6)[C@H](C)O)C(C)C)nn5)cc4)c3n2)C1", "note": "[Example 212]", "values": [{"measurement": "DC50", "result": "< 10", "unit": "nM"}]}
{"smiles": "CCn1nccc1-c1ccc([C@H](CO)NC(=O)[C@@H]2C[C@@H](O)CN2C(=O)[C@H](C(C)C)n2cc(-c3ccc(COc4c(-c5c(C)c(F)cc6[nH]ncc56)c(C5CC5)cc5c(N6C[C@@H]7C[C@H]6CN7)nc(N6CCC(OC)CC6)nc45)cc3)nn2)cc1", "note": "[Example 124, (2S,4R)-1-((2S)-2-(4-(4-(((4-((1S,4S)-2,5-diazabicyclo[2.2.1]heptan-2-yl)-6-cyclopropyl-7-(6-fluoro-5-methyl-1H-indazol-4-yl)-2-(4-methoxypiperidin-1-yl)quinazolin-8-yl)oxy)methyl)phenyl)-1H-1,2,3-triazol-1-yl)-3-methylbutanoyl)-N—((R)-1-(4-(1-ethyl-1H-pyrazol-5-yl)phenyl)-2-hydroxyethyl)-4-hydroxypyrrolidine-2-carboxamide]", "values": [{"measurement": "DC50", "result": "< 10", "unit": "nM"}]}
